Data from article PMC9688808, “Discovery of Novel Lin28 Inhibitors to Suppress Cancer Cell Stemness” (Cancers, 2022).
pIC50: −log10 of the molar value.

Legend:
[1] = test system: DUNE cells; test: Real-time qPCR of Let-7d, SOX2, HMGA2 in DUNE cells; type: cell-based; details: 20 uM, 48 h
Description: The DUNE cell line and DUNE cells with Lin28B knockout by CRISPR (DUNE (KO)) were reported in our previous studies. IGROV1 cells were obtained from Sigma-Aldrich (St. Louis, MO, USA). DUNE and DUNE (KO) cells were cultured in Dulbecco’s Modified Eagle Medium with high Glucose/L-glutamine (DMEM; Hyclone, Logan, UT, USA) and 10% of fetal bovine serum (FBS; Gibico, Waltham, MA, USA). IGROV1 cells were cultured in Roswell Park Memorial Institute 1640 (RPMI-1640; Hyclone) medium with 10% FBS. All the cell lines were incubated in 5% CO2 at 37 °C and were tested for mycoplasma contamination monthly and cell line authentication was tested by short tandem repeat profiling by ATCC.
(§1) There are several standard molecular techniques, including real-time qPCR, flow cytometry, cell proliferation, colony formation, and immunoblotting assays, that have been reported previously by our lab.
Figure 4 Lin28 inhibitors restore Let-7d expression and suppress SOX2 and HMGA2 genes. DUNE (top) and DUNE (KO) (bottom) cells were treated with 20 uM of the indicated compounds for 48 h. Real-time qPCR measured RNA levels of Let-7d, SOX2, and HMGA2. Three biological replicates were performed and all results are presented as mean +/− SD. p-value ≤ 0.05—(*); ≤0.01—(**); ≤0.001—(***).

[2] = set-up: method as in PMID 29874593; details: cited from earlier work
[3] = target: T1, Lin28A ZKD (Homo sapiens, UniProt Q9H9Z2); test: Fluorescence polarization (FP) assay, Lin28A ZKD with FAM-labeled Let-7 probe; type: binding; details: for suppression of FP signals: Lin28A ZKD; for pIC50: 10 uM Lin28A ZKD, 1 nM FAM-labeled Let-7 probe, 1 nM–200 uM compound
T1 construct: Lin28A ZKD (aa121-187); His-tag; made in house; host or cells: Escherichia coli BL21
T1 sequence (Q9H9Z2 121-187): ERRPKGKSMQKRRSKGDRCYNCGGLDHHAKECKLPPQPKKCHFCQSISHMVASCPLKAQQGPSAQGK
Excerpt: ZINC compounds were purchased from Enamine (Kyiv, Ukraine), Life Chemicals Ltd. (Kyiv, Ukraine), or Princeton Biomolecular Research (Princeton, NJ, USA) with >90% purity. Upon receiving the compounds, the molecular masses were validated by LC/MS/MS. His-tagged human Lin28B ZKD (aa110-174), Lin28B CSD+ZKD (aa7-204), and Lin28A ZKD (aa121-187) were expressed in Escherichia coli BL21 cells and purified by immobilized metal ion affinity chromatography (IMAC) with nickel nitrilotriacetic acid (NiNTA) resin and size exclusion chromatography (s75 10/300 GL) as we have previously reported.
The fluorescein amidites (FAM)-tagged Let-7 probe with the sequence of […] was purchased from Integrated DNA Technologies (IDT). The probe at the concentrations ranging from 1 nM to 50 uM was incubated with Lin28B (ZKD) or Lin28 (CSD+ZKD) to a final volume of 30 uL at room temperature for 20 min. To read the fluorescence, a TECAN 500 machine was used. Fluorescence polarization was calculated using the following equation: P=Fparrallel−Fperpendicular/Fparrallel+Fperpendicular where P is the fluorescence polarization reading, F parallel is the fluorescence intensity acquired from the parallel excitation plane, and F perpendicular is the fluorescence intensity acquired from the perpendicular direction of the excitation plane. The total fluorescence intensity is estimated using the following equation: F=Fparallel+2Fperpendicular
All the raw FP signal data from the TECAN 500 FP results were analyzed using Prism 8.0 (GraphPad, San Diego, CA, USA); normalized curves were plotted and IC50 values were estimated. All FP data were repeated three to five times.
Figure 5 Lin28 inhibitors block the Lin28A isoform. (A) EMSA used 10 nM of IR800DyeCWN-labeled Let-7 probe (lane 1), 0.5 uM Lin28A ZKD protein with 10 nM of labeled Let-7 probe (lane 2), or Lin28A ZKD, labeled Let-7 probe and 100× non-labeled competitor probe (lane 3). EMSA used Lin28A ZKD, labeled Let-7 probe, and 100–1200 uM of indicated compounds (lanes 4–10). (B) FP assays were performed by using 10 uM of Lin28A ZKD, 1 nM of FAM-labeled Let-7 probe, and 1 nM–200 uM of compounds. (C) Lin28A-positive IGROV1 cells were treated with 20 uM of the indicated compound for 48 h. Real-time qPCR measured RNA levels of Let-7d, SOX2, and HMGA2. Three biological replicates were performed and all results are presented as mean +/− SD. p-value ≤ 0.05—(*); ≤0.01—(**); ≤0.001—(***).

[4] = set-up: method as in PMID 29874593; details: at high uM concentrations; cited from earlier work
[5] = test system: DUNE cells; test: Immunoblotting in DUNE cells; type: cell-based; details: 20uM, 24 hours, immunoblot
Description: as §1
Figure S2. DUNE cells were treated with 20uM of indicated compounds for 24 hours. Protein lyses were collected and immunoblotted with Vinculin, SOX2, and HMGA2 antibodies. […]
Figure S3. DUNE or DUNE(KO) cells were treated with 20uM of indicated compounds for 24 hours. Protein lyses were collected and immunoblotted with Lin28b, SYP, CD44, and CD133 antibodies. Beta-actin was used as the loading control. […]

Row | SMILES | suppression of FP signals [3] | pIC50 [3] | HMGA2 mRNA level [1] | Let-7d expression level [1] | SOX2 mRNA level [1] | solubility [2] | cellular toxicity [4] | protein expression of SYP [5]
1 | CCc1cc(=O)[nH]c(Nc2cc(Cl)ccc2O)n1 [Ln7] | – | 4.56 | strongly inhibited | approximately six- to eight-fold | strongly inhibited | – | – | –
2 | O=c1cccc(-c2nc3cc(F)c(O)cc3c(=O)[nH]2)[nH]1 [Ln115] | – | 4.91 | strongly inhibited | approximately six- to eight-fold | strongly inhibited | – | – | suppressed

Further lines, with some results ahead:

Row | suppression of FP signals [3] | pIC50 [3] | SMILES | HMGA2 mRNA level [1] | Let-7d expression level [1] | SOX2 mRNA level [1] | solubility [2] | cellular toxicity [4] | protein expression of SYP [5]
3 | mild inhibitions | – | CCOc1cccc2c1N[C@@H](c1ccc(C(=O)O)cc1)[C@H]1CC=C[C@@H]21 [Li71, reference compound] | strongly inhibited | approximately six- to eight-fold | strongly inhibited | high solubility | low cellular toxicity | –
4 | – | 5.04 | O=c1[nH]c(Nc2ccccc2O)cs1 [Ln15] | strongly inhibited | approximately six- to eight-fold | strongly inhibited | – | – | suppressed
5 | mild inhibitions | – | CC(=O)N(C)c1cccc(-c2ccc3nnc(C)n3n2)c1 [compound 1632, reference compound] | not | did not show any impacts | not | – | – | –
